Tested on: phospho-cdc2 (Tyr15) in HT-29 cells
Assay: Effect on phosphorylation of cdc2 at Tyr15 in HT-29 cells (PathScan ELISA)
Format: cell-based
Details: Homo sapiens, HT-29, 8 h; HT29 cells, eight hours incubation; read-out: HT29 pCDC2 activity

## O=c1c2cnc(Nc3ccc(N4CCNCC4)cc3)nc2ccn1-c1c(Cl)cccc1Cl [Example 1, 6-(2,6-Dichlorophenyl)-2-((4-(piperazin-1-yl)phenyl)amino)pyrido[4,3-d]pyrimidin-5(6H)-one]
  IC50: ≥ 1000 nM
